According to patent US6756370B1, “Piperidine alcohols” (Merck Patent GmbH, priority 1999, dated 2004):
Where a name gives a salt, the structure may show the parent alone. Read-outs that look alike come from different tables or passages of the source.

What was measured:
5-HT2A receptors = target: T1, 5-HT2A receptors (Rattus norvegicus, UniProt P14842); experiment: 5-HT2A receptor binding test ([3H]ketanserin displacement)
T1 construct: Frontal rat cortex is homogenized in ice-cold buffer; from tissue; host or cells: rat frontal cortex homogenate (membrane pellet)
T1 sequence (P14842 whole entry): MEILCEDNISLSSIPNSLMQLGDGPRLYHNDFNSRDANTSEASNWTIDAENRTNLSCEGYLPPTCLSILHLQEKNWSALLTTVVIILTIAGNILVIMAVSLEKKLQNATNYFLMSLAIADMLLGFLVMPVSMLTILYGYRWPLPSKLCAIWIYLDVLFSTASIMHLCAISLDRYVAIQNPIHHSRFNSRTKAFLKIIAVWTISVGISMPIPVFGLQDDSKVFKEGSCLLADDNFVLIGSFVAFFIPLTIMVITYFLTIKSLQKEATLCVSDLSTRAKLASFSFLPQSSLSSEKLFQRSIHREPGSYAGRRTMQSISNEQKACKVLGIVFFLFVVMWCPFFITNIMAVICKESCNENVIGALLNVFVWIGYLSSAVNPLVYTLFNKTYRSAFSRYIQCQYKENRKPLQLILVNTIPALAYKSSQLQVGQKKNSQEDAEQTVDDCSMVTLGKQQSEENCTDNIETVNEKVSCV
Description: For the in-vitro detection of the affinity for 5-HT2A receptors, it is possible to use, for example, the following test (Example A1). The 5-HT2A receptors are exposed to both [^3H]ketanserin (a substance known for its affinity for the receptor) and the test compound. The decrease in the binding of [^3H]ketanserin to the receptor is a sign of the affinity of the test substance for the 5-HT2A receptor. Detection is carried out analogously to the description of J. E. Leysen et al., Molecular Pharmacology, 1982, 21: 301-314 or as also described, for example, in EP 0320983.
Preparation of a suspension of 5-HT2A receptors: Frontal rat cortex is homogenized in ice-cold buffer. The homogenate is centrifuged for 10 minutes at 4° C. and 50,000×[sic]. The pellet is resuspended in 2.5 ml of ice-cold tris buffer, made up with 10 ml of additional buffer and centrifuged as described [lacuna]. The pellet is then resuspended in buffer and diluted to give a homogenate which contains 60 mg of material/ml. 0.1 ml of the suspension, 100 μl of a 5 nM solution of [^3H]ketanserin, 100 μl of a solution of the test compound (concentration in the range from 10^−5 to 10^−10 mol per litre) are added to the incubation tubes and made up to 1 ml with buffer. The tubes are incubated for 15 minutes at 37° C. After termination of the incubation by immersing the tubes in an ice bath, the cooled suspension is filtered through a glass filter in vacuo. The filters are washed 3× with 5 ml of cold buffer and then transferred to scintillation tubes. The filters are analysed by means of liquid scintillation spectrometry in 8 ml of Triton X scintillator fluid.
The IC50 values are indicated for the binding tests.

[1] = tested on: DOI-induced head-twitching in mice; experiment: DOI-induced head-twitching in mice (DOI antagonism); assay type: in vivo; conditions: male mice, test compound orally, 30 minutes later 3 mg/kg of DOI intraperitoneally, observed for 15 minutes
From the text: Serotonin-2(5-HT2)agonists such as 1-(2,5-dimethoxy-4-iodophenyl)-2-aminopropane (DOI) induce sterotypic behaviour patterns such as, for example, head-twitching or ear-scratching in various animals such as, for example, mice or rats (N. A. Darmani et al., Pharmacol. Biochem. Behav. 1989, 36: 901-906; N. A. Darmani et al., Pharmacol. Biochem. Behav. 1990, 37: 95-99; N. A. Darmani et al., Pharmacol. Biochem. Behav. 1994, 48: 383-396; D. L. Willins and H. Y. Meltzer, J. Pharmacol. Exp. Ther., 1997, 282: 699-706).
DOI-induced head-twitching in mice is used in order to test compounds having 5-HT2A antagonistic properties. The test compound is orally administered to male mice. 30 minutes later, 3 mg/kg of DOI is [sic] are administered intraperitoneally. The animals are observed for 15 minutes and the number of head twitches is noted. Quantification of the in vivo antagonistic effect of the test compounds ensues by comparison with the number of head twitches from those investigations in which the animals were only DOI-treated.

[2] = frontal rat cortex homogenate, 15 minutes at 37° C.

Row | Molecule | IC50 (5-HT2A receptors; read-out: IC50 values (concentrations in mol/l at which 50% of the radioactive ligands are displaced from the binding sites), frontal rat cortex homogenate, 15 minutes at 37° C.) [nM] | IC50 (5-HT2A receptors; [2]) [nM] | Inhibition [%], suppression of behaviour elicited (head-twitching in mice), DOI antagonism [1] [%] | melting point [°C]
1 | 1-{1-[2-(2,3-dimethoxy-phenyl)ethyl]piperidin-4-yl}-1-(4-fluorophenyl)ethanol, hydroiodide | 11 | – | – | –
2 | Cc1cc(CCN2CCC(C(C)(O)c3ccc(F)cc3)CC2)sc1Cl (racemic) | – | 4.2 | – | –
3 | Cc1nc(CCN2CCC(C(C)(O)c3ccc(F)cc3)CC2)cs1 (racemic) | – | 66 | – | –
4 | Cc1ccccc1CCN1CCC(C(C)(O)c2ccc(C(F)(F)F)cc2)CC1 (racemic) | – | 1.4 | – | –
5 | CC(O)(c1ccc(F)cc1)C1CCN(CCc2ccc(Cl)cc2Cl)CC1 (racemic) | – | 2 | – | –
6 | CC(O)(c1ccc(F)cc1)C1CCN(CCc2ccc(F)cc2F)CC1 (racemic) | – | 0.83 | – | –
7 | CC(O)(c1ccc(F)cc1)C1CCN(CCc2cc(Cl)sc2Cl)CC1 (racemic) | – | 2.2 | – | –
8 | CC(O)(c1ccc(F)cc1)C1CCN(CCc2ccc(C#N)cc2)CC1 (racemic) | – | 27 | – | –
9 | CC(O)(c1ccc(F)cc1)C1CCN(CCc2ccc(C(F)(F)F)cc2)CC1 (racemic) | – | 32 | – | –
10 | CC(O)(c1ccc(F)cc1)C1CCN(CCc2ccc(Br)s2)CC1 (racemic) | – | 3.9 | – | –
11 | CC(O)(c1ccc(F)cc1F)C1CCN(CCc2ccc(Cl)s2)CC1 (racemic) | – | 5.5 | – | –
12 | CC(O)(c1ccc(C(F)(F)F)cc1)C1CCN(CCc2ccc(Cl)s2)CC1 (racemic) | – | 8.6 | – | –
13 | COc1ccc(CCN2CCC(C(C)(O)c3ccc(F)cc3)CC2)s1 (racemic) | – | 21 | – | –
14 | Cc1ccc(CCN2CCC(C(C)(O)c3ccc(F)cc3)CC2)s1 (racemic) | – | 0.89 | – | –
15 | CC(O)(c1ccc(F)cc1)C1CCN(CCc2ccsc2)CC1 (racemic) | – | 2.2 | – | –
16 | CC(O)(c1ccc(Cl)cc1)C1CCN(CCc2ccc(F)cc2)CC1.Cl (racemic) [1-{1-[2-(4-fluorophenyl)ethyl]piperidin-4-yl}-1-(4-chlorophenyl)ethanol, hydrochloride] | – | 1.3 | 96 | 201 to 203
17 | CC(O)(c1ccc(F)cc1)C1CCN(CCc2ccc(F)cc2)CC1 (racemic) [1-{1-[2-(4-fluorophenyl)ethyl]piperidin-4-yl}-1-(4-fluorophenyl)ethanol] | – | 1.3 | – | 122 to 123
18 | CC(O)(c1ccc(Cl)s1)C1CCN(CCc2ccc(F)cc2)CC1 (racemic) [1-{1-[2-(4-fluorophenyl)ethyl]piperidin-4-yl}-1-(5-chlorothiophen-2-yl)ethanol] | – | 0.75 | 26 | 159 to 160

Row | Molecule | IC50 (5-HT2A receptors; read-out: IC50 values (concentrations in mol/l at which 50% of the radioactive ligands are displaced from the binding sites), frontal rat cortex homogenate, 15 minutes at 37° C.) [nM] | IC50 (5-HT2A receptors; [2]) [nM] | Inhibition [%], suppression of behaviour elicited (head-twitching in mice), DOI antagonism [1] [%] | melting point [°C]
19 | CC(O)(c1cccc2c1OCCO2)C1CCN(CCc2ccc(F)cc2)CC1.Cl (racemic) [1-{1-[2-(4-fluorophenyl)ethyl]piperidin-4-yl}-1-(benzo[1,4]dioxan-5-yl)ethanol, hydrochloride] | – | 3.7 | 9 | 209 to 212
20 | CC(O)(c1ccc(Cl)cc1)C1CCN(CCc2ccc(Cl)s2)CC1.Cl (racemic) [1-{1-[2-(5-chlorothiophen-2-yl)ethyl]piperidin-4-yl}-1-(4-chlorophenyl)ethanol, hydrochloride] | – | 2.6 | 28 | 192 to 193
21 | CC(O)(c1ccc(F)cc1)C1CCN(CCc2ccc(Cl)s2)CC1 (racemic) [1-{1-[2-(5-chlorothiophen-2-yl)ethyl]piperidin-4-yl}-1-(4-fluorophenyl)ethanol] | – | 0.69 | – | –
22 | CC(O)(c1ccccc1)C1CCN(CCc2ccc(Cl)s2)CC1.I (racemic) [1-{1-[2-(5-chlorothiophen-2-yl)ethyl]piperidin-4-yl}-1-phenylethanol, hydroiodide] | – | 0.83 | – | 177 to 178
23 | CC(O)(c1ccc(F)cc1)C1CCN(CCc2cccs2)CC1.Cl (racemic) [1-{1-[2-(thiophen-2-yl)ethyl]piperidin-4-yl}-1-(4-fluorophenyl)ethanol, hydrochloride] | – | – | – | 222 to 223
24 | CC(O)(c1ccccc1)C1CCN(CCc2ccc(F)cc2)CC1.I (racemic) [R1=4-fluorophenyl, R2=phenyl, HI, rac, 1-{1-[2-(4-fluorophenyl)ethyl]piperidin-4-yl}-1-phenylethanol, hydroiodide] | – | 0.68 | – | 205 to 207
25 | CC(O)(c1ccc(F)cc1)C1CCN(CCc2ccncc2)CC1 (racemic) [R1=4-pyridyl, R2=4-fluorophenyl, rac] | – | 220 | – | –
26 | CC(O)(c1ccc(F)cc1)C1CCN(CCc2ccc(F)cc2F)CC1 (single isomer, unassigned) [listing 1 of 2 here] | – | 40 | – | –
27 | CC(O)(c1ccc(F)cc1)C1CCN(CCc2ccc(F)cc2F)CC1 (single isomer, unassigned) [listing 2 of 2 here] | – | 2.9 | – | –
28 | CC(O)(c1ccc(F)cc1F)C1CCN(CCc2ccc(F)cc2)CC1 (single isomer, unassigned) [listing 1 of 2 here] | – | 2200 | – | –
29 | CC(O)(c1ccc(F)cc1F)C1CCN(CCc2ccc(F)cc2)CC1 (single isomer, unassigned) [listing 2 of 2 here] | – | 0.72 | – | –
30 | CC(O)(c1ccc(F)cc1)C1CCN(CCc2ccsc2)CC1 (single isomer, unassigned) [listing 1 of 2 here] | – | 250 | – | –
31 | CC(O)(c1ccc(F)cc1)C1CCN(CCc2ccsc2)CC1 (single isomer, unassigned) [listing 2 of 2 here] | – | 3.3 | – | –
32 | CC(O)(c1ccc(F)cc1)C1CCN(CCc2ccc(F)cc2)CC1 (single isomer, unassigned; (+)) [(+)-1-{1-[2-(4-fluorophenyl)ethyl]piperidin-4-yl}-1-(4-fluorophenyl)ethanol, hydrochloride] | – | 0.35 | – | –
33 | CC(O)(c1ccc(F)cc1)C1CCN(CCc2ccc(Cl)s2)CC1.Cl (single isomer, unassigned; (+)) [(+)-1-{1-[2-(5-chlorothiophen-2-yl)ethyl]piperidin-4-yl}-1-(4-fluorophenyl)ethanol, hydrochloride] | – | 1.1 | 21 | 210 to 211
34 | CC(O)(c1ccc(F)cc1)C1CCN(CCc2ccc(F)cc2)CC1.Cl (single isomer, unassigned; (-)) [(−)-1-{1-[2-(4-fluorophenyl)ethyl]piperidin-4-yl}-1-(4-fluorophenyl)ethanol, hydrochloride] | – | 57 | – | 185 to 186
35 | COc1cccc(C(O)C2CCN(CCc3ccc(F)cc3)CC2)c1OC (stereo not drawn) [Comparison from EP 0531410, (+)-α-(2,3-dimethoxyphenyl)-1-[2-(4-fluorophenyl)-ethyl]-4-piperidinemethanol, reference compound] | – | – | 0 | –
